Results: patent publication US20260248815A1, “NEUROACTIVE STEROID FORMULATIONS AND METHODS OF USE THEREOF” (Sage Therapeutics, LLC, priority 2023, published 2026)
Read-outs that look alike come from different tables or passages of the source.

Assay: Open-label single-dose PK study in participants with hepatic impairment and normal hepatic function
Assay type: in vivo, human
Conditions: GeoMean, single 1.2 mg oral dose softgel capsules; for Cmax / AUC(0-inf) / AUC(0-t) / Tmax / Vd/F: human, in vivo, po, 1.2 mg; for Vd/F: read-out: Vz/F
Description: In an open-label, parallel group study to evaluate the PK, safety, and tolerability of Compound I, a single 1.2 mg oral dose of softgel capsules was administered to participants with hepatic impairment and in participants with normal hepatic function. Part 1 of the study comprised participants with moderate hepatic impairment (as determined by the Child-Pugh classifications; Class B (7 to 9 points)) and participants with normal hepatic function assigned to Cohorts 1 and 2, respectively. After Cohort 1 had been completely enrolled, participants with normal hepatic function (Cohort 2) were matched to Cohort 1 participants with respect to sex, mean age (10 years) and mean body mass index (BMI; 20%).
On Day 1, participants in Cohorts 1 and 2 received a single oral dose of 1.2 mg Compound I softgel capsules in the morning. Serial blood samples for PK analysis were collected through 168 hours post dose.

[1] = Cohort 1: moderate hepatic impairment, N 8
[2] = Cohort 2: normal hepatic function, N 7
[3] = Cohort 2: normal hepatic function, N 8

- CLz/F [1]: 5.5 L/h
- tlast [1]: 53.9 h
- CLz/F [2]: 4.71 L/h
- tlast [3]: 64.3 h
- Cmax (Cohort 1: moderate hepatic impairment (Child-Pugh Class B), N 8): 12.2 ng/mL
- AUC(0-inf) [1]: 218 ng·h/mL
- AUC(0-t) [1]: 188 ng·h/mL
- Tmax [1]: 3.69 h
- Vd/F [1]: 153 L
- AUC(0-inf) [2]: 255 ng·h/mL
- AUC(0-t) [2]: 238 ng·h/mL
- Vd/F [2]: 151 L
- Cmax [3]: 15.7 ng/mL
- Tmax [3]: 3.99 h
SMILES: C[C@H](CC[C@](C)(O)C(F)(F)F)[C@H]1CC[C@H]2[C@@H]3CC=C4C[C@@](C)(O)CC[C@]4(C)[C@H]3CC[C@]12C [Compound I]
